Measured values reported in ChEMBL document CHEMBL1909046, “DrugMatrix in vitro pharmacology data”.

Tests used:
[1] = target: T1, Muscarinic acetylcholine receptor M4 (Homo sapiens, UniProt P08173); type: cell membranes, CHO-K1, Membrane; conditions: cho-k1; note: in other assays of this panel Not Active means under 50% inhibition at 10 µM
T1 sequence (P08173 whole entry): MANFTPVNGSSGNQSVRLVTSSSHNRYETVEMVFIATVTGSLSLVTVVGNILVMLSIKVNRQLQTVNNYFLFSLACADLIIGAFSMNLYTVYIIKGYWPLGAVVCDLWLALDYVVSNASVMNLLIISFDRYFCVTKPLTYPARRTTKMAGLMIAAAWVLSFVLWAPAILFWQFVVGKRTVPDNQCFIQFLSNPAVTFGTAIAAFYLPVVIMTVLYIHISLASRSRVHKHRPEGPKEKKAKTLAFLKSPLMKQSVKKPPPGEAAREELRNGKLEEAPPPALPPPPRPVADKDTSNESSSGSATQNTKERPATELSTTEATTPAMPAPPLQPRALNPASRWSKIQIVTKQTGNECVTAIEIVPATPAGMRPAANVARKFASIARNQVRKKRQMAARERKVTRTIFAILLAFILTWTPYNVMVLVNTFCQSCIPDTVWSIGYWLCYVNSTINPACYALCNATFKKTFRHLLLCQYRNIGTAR

Cytochrome P450 1A2 = target: T2, Cytochrome P450 1A2 (Homo sapiens, UniProt P05177); note: in other assays of this panel Not Active means under 50% inhibition at 10 µM
T2 sequence (P05177 whole entry): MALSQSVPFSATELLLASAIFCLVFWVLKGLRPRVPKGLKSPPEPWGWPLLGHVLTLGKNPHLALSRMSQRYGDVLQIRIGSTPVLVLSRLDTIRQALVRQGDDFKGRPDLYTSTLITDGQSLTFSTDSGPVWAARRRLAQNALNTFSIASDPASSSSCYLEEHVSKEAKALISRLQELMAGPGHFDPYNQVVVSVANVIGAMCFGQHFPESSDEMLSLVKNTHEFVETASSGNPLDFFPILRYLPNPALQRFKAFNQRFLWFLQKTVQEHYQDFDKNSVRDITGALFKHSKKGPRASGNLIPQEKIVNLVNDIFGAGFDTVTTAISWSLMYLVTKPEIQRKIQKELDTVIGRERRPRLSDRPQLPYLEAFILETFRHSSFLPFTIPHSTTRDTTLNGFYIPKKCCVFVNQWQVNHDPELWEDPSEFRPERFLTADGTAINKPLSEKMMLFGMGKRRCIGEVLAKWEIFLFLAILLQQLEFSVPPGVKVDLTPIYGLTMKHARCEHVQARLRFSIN

Cytochrome P450 2D6 = Cytochrome P450 2D6 (Homo sapiens, UniProt P10635); note: in other assays of this panel Not Active means under 50% inhibition at 10 µM
Sequence of Cytochrome P450 2D6 (P10635 whole entry): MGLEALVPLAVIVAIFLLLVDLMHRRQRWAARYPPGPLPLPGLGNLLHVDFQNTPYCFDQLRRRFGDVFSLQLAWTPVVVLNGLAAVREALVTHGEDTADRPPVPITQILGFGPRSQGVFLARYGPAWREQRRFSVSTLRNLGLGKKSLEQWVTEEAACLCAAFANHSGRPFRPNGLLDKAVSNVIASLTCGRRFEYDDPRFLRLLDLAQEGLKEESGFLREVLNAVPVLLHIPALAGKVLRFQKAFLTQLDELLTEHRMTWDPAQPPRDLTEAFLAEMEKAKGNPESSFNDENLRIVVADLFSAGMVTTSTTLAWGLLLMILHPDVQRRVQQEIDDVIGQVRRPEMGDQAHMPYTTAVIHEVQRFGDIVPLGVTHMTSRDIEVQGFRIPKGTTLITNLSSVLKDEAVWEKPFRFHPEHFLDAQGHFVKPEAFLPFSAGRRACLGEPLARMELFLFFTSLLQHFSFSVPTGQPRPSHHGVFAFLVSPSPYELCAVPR

Estrogen receptor = target: T3, Estrogen receptor (Homo sapiens, UniProt P03372); conditions: sf9; note: in other assays of this panel Not Active means under 50% inhibition at 10 µM
T3 sequence (P03372 whole entry): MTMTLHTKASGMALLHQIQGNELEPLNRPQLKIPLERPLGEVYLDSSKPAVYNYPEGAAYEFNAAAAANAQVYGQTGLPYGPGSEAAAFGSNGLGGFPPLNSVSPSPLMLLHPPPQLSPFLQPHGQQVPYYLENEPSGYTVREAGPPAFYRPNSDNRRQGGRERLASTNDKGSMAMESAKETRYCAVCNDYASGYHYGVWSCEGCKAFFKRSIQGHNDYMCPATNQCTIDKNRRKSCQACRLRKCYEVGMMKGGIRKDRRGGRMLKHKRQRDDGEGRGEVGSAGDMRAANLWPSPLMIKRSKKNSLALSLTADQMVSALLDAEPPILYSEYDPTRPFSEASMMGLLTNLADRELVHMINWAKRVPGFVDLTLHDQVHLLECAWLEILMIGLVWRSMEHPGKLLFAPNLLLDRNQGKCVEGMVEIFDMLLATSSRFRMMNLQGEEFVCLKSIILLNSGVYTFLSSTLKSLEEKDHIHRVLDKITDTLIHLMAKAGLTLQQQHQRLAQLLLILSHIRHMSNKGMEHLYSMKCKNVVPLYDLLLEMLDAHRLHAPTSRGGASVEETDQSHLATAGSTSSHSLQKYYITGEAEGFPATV

[2] = DRUGMATRIX: Leukotriene, BLT (LTB4) radioligand binding (ligand: [3H]LTB4); type: cell membranes, Membrane; conditions: u-937; Not Active = under 50% inhibition at 10 µM
[3] = DRUGMATRIX: Glutamate, AMPA radioligand binding (ligand: [3H] AMPA); type: cell membranes, Rattus norvegicus, Wistar, Cerebral cortex, Membrane; conditions: Not Active = under 50% inhibition at 10 µM
Androgen receptor = target: T4, Androgen receptor (Rattus norvegicus, UniProt P15207); note: in other assays of this panel Not Active means under 50% inhibition at 10 µM
T4 sequence (P15207 whole entry): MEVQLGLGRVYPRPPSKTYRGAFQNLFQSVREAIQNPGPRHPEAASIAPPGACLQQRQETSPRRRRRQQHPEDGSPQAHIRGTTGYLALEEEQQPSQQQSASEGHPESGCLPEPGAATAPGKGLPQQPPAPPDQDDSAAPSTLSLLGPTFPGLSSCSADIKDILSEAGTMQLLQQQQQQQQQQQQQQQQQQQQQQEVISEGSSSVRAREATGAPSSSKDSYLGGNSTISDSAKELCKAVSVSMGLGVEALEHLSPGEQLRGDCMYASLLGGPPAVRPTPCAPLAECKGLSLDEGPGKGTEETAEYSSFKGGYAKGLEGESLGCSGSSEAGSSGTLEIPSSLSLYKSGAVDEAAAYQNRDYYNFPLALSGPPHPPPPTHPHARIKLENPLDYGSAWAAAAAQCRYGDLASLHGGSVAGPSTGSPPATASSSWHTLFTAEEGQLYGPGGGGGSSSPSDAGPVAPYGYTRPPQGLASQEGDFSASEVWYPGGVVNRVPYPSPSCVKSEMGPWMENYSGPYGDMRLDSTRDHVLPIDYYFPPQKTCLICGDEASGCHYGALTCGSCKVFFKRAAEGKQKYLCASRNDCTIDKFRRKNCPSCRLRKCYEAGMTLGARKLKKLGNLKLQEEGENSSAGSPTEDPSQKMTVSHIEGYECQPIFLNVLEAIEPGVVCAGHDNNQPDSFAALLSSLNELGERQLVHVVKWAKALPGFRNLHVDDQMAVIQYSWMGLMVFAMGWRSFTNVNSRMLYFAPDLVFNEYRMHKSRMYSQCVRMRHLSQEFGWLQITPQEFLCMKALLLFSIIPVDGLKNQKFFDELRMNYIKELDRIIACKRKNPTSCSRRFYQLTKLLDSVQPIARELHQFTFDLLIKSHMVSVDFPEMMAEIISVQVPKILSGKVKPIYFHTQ

SMILES | IC50 [1] | IC50 (Cytochrome P450 1A2) [µM] | IC50 (Cytochrome P450 2D6) [µM] | IC50 (Estrogen receptor) | IC50 [2] | Ki [2] | IC50 [3] | Ki [3] | IC50 (Androgen receptor)
CC(C)NCC(O)COc1cccc2ccccc12 (stereo not drawn) [PROPRANOLOL] | Not Active | 4 |  |  |  |  |  |  | 
Clc1ccc2c(c1)C(N1CCNCC1)=Nc1ccccc1O2 [AMOXAPINE] |  |  | 10 | Not Active |  |  |  |  | 
CO[C@H]1/C=C/O[C@@]2(C)Oc3c(C)c(O)c4c(c3C2=O)C2=NC3(CCN(CC(C)C)CC3)NC2=C(NC(=O)/C(C)=C\C=C\[C@H](C)[C@H](O)[C@@H](C)[C@@H](O)[C@@H](C)[C@H](OC(C)=O)[C@@H]1C)C4=O [RIFABUTIN] | Not Active |  |  | Not Active | Not Active | Not Active | Not Active | Not Active | Not Active
C[C@@H](N)[C@H]1CC[C@H](C(=O)Nc2ccncc2)CC1 [Y-27632] | Not Active |  |  | Not Active | Not Active | Not Active | Not Active | Not Active | Not Active
